The record followed here is patent publication US8580746B2, “Amide linkage cyclic natriuretic peptide constructs” (Palatin Technologies, Inc., priority 2006, dated 2013).

pEC50, pKi: −log10 of the molar value. Numbered stars: 1 amine (or outer) side, 2 acyl side, 3 side chain; on linkers, the order of the positions; unused ones are H or OH. Bridge positions count the residues as written; N and C are the ends. Square brackets hold non-standard residues; d marks the D form. Peptide text beside a SMILES is read from it. * marks the point of attachment. X1 = N=C(N)NCCC[C@H]1C(=O)N[C@@H](C(N)=O)CN1*; Glutaryl = O=C(CCCC(=O)[*:2])[*:1]; Suc = O=C(CCC(=O)[*:2])[*:1]; dNle = CCCC[C@@H](N)C(=O)O; Heptanoyl = CCCCCCC(=O)*; Nle = CCCC[C@H](N)C(=O)O; Orn = NCCC[C@H](N)C(=O)O; Dab = NCC[C@H](N)C(=O)O; Dap = NC[C@H](N)C(=O)O

Data set [1] deals with T1, human natriuratic peptide receptor A (NPRA) (Homo sapiens, UniProt P16066).
T1 sequence (P16066 33-1061): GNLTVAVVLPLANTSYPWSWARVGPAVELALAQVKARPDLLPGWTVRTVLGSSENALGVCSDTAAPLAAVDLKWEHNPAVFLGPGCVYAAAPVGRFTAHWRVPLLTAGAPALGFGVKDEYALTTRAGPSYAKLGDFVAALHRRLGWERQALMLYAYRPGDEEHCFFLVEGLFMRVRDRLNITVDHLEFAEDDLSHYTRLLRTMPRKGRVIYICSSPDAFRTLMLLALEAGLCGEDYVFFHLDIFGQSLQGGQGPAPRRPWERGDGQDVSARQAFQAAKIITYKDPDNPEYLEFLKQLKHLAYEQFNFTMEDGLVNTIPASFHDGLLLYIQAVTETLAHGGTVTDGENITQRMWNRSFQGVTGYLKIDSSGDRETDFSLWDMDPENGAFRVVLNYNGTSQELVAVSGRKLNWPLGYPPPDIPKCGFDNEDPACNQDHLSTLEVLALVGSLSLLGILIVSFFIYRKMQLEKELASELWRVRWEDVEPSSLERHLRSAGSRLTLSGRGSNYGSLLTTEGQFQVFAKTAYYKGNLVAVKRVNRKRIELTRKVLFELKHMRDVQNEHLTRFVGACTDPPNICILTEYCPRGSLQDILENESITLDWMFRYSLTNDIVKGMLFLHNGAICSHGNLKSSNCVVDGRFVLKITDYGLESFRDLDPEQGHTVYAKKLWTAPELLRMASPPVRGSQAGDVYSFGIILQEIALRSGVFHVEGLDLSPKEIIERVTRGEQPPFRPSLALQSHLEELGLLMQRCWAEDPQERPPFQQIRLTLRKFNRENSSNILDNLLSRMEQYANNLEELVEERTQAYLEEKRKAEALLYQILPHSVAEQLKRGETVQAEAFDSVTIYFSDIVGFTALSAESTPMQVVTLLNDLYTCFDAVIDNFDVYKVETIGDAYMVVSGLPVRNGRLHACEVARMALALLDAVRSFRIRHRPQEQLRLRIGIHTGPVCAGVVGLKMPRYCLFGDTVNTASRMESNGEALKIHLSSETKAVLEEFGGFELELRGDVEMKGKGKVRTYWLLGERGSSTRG
The data set can be described thus: Competitive inhibition binding assay, [125I]-ANP, membrane homogenates from HEK-hNPRA cells. To be noted: for Percent Inhibition: inhibition of [125I]-ANP binding to HEK-hNPRA membranes, construct concentration not stated. The text has this:
(§1) A cDNA clone that encodes for human natriuratic peptide receptor A (NPRA) was purchased from Bio S&T Inc. (Montreal, Quebec). The cDNA clone was inserted into the mammalian expression vector pcDNA3.1 (Invitrogen) and transfected into HEK-293 cells. Stable clones were selected by culture of cells in the presence of G418 sulfate. Expression of NPRA was examined by binding of [^125I]-atrial natriuretic peptide ([^125I]-ANP) to membrane homogenates prepared from clonal cell lines. HEK-hNPRA cells were maintained in culture at 37° C. in 5% CO2 in Dulbecco's Modified Eagle's Medium (DMEM) supplemented with 10% FBS, G418 sulfate (300 μg/mL) sodium glutamate (0.29 mg/mL), penicillin (100 units/mL) and streptomycin (100 ug/mL).
A competitive inhibition binding assay was performed using crude membrane homogenates prepared from HEK-hNPRA cells. To prepare membrane homogenates, cells were rinsed with phosphate-buffered saline and incubated for 15 minutes at 4° C. in hypotonic lysis buffer (10 mM Tris, pH 7.4+5 mM EDTA). Cells were transferred from plates to polypropylene tubes and homogenized. Homogenates were centrifuged at 25,000×g for 20 minutes. Pellets were resuspended in buffer consisting of 50 mM Tris (pH 7.4) and 1 mM EDTA, homogenized and centrifuged at 25,000×g for 20 minutes. Pellets were resuspended in buffer consisting of 100 mM Tris (pH 7.4) and 10 mM MgCl2 and stored at −80° C. until needed. On the day of an assay, homogenates were thawed and homogenized. Binding of [^125I]-ANP was carried out in buffer containing 25 mM Hepes (pH 7.4), 100 mM NaCl, 2 mM CaCl2, 5 mM MgCl2, 0.1% BSA and 1 mM 1,10-phenanthroline. Homogenates (1-10 μg protein/well) were incubated with [^125I]-ANP (25-30 pM) and increasing concentrations of competing ligands in Millipore filter plates for 120 minutes at 4° C. Assays were stopped by addition of cold wash buffer (phosphate-buffered saline) followed by filtration using a vacuum manifold. Bound radioactivity was determined using a gamma counter. Non-specific binding was defined by binding of [I^125]-hANP to non-transfected HEK293 membranes. Data were analyzed using GraphPad Prism® curve-fitting software.

A further data set deals with T2, hNPR-A (Homo sapiens, UniProt P16066).
T2 sequence (P16066 33-1061): T1 sequence (P16066 33-1061)
The data set can be described thus: Accumulation of intracellular cGMP in HEK-293 cells that express recombinant hNPR-A. The class given is cell-based. The note with it: HEK-hNPRA cells.
Description: as §1
Functional evaluation of constructs was performed by measuring the accumulation of intracellular cGMP in HEK-293 cells that express recombinant hNPR-A. HEK-NPRA cells were harvested by washing and centrifugation in Cell Dissociation Buffer (Gibco, Life Technologies). Pelleted cells were resuspended in Hank's Balanced Salt Solution (HBSS) containing 10 mM Hepes (pH 7.4), 5 mM MgCl2, […], 1 mM 1,10-phenanthroline and BSA (0.5 mg/mL). Following centrifugation, cells were resuspended in the above buffer supplemented with 0.5 mM 3-isobutyl-1-methylxanthine (IBMX). Cells (˜2×10^5/well) were added to each well of a 96-well plate and incubated for 15 minutes at 37° C. Following the pre-incubation period, cells were incubated for an additional 15 minutes in the presence of increasing concentrations of constructs. The reaction was terminated by lysis of the cells with temperature shock. The reaction plate was incubated in a dry ice/ethanol bath for 15 minutes followed by incubation at 90° C. for 10 minutes. Accumulation of cGMP was measured using the cGMP Flashplate RIA (Perkin-Elmer). Data analysis and EC50 values were determined by using nonlinear regression analysis with GraphPad Prism® software.

A short description of data set [2]: Resistance to degradation by human neutral endopeptidase. The class given is in vitro ADME. To be noted: isolated enzyme neprilysin; 50 μM concentration of human neutral endopeptidase; two hours; read-out: percent of construct remained after incubation for two hours. The method, then: (§2) In other tests, resistance to degradation by a 50 μM concentration of human neutral endopeptidase was determined for selected constructs.

The test system of another data set is neutral endopeptidase. The data set is described as above. The class given is in vitro ADME. The note with it: human neutral endopeptidase (isolated enzyme); 50 μM concentration of human neutral endopeptidase; two hours; read-out: percent of construct remained after incubation for two hours. The method, then:
as §2

Consider `CCCC[C@H]1NC(=O)[C@H](CCCNC(=N)N)NC(=O)CNC(=O)[C@@H](C)NC(=O)[C@H](Cc2ccccc2)NC(=O)[C@H](Cc2c[nH]cn2)NC(=O)[C@@H](NC(=O)[C@@H](C)N)CCC(=O)NCC[C@@H](C(=O)N[C@@H](Cc2ccc(O)cc2)C(=O)N2C[C@H](C(N)=O)NC(=O)[C@@H]2CCCNC(=N)N)NC(=O)[C@H](CO)NC(=O)[C@H]([C@@H](C)CC)NC(=O)[C@H](CCCNC(=N)N)NC(=O)[C@H](CC(=O)O)NC1=O` [4-90] (H-[dA]EHF[dA]GR[dNle]DRIS[Dab]Y-X1; lactam 2-13), for which the pKi (commonly the Ki on a negative log10 scale, so that one unit is a factor of ten) in data set [1] ([125I]-ANP competition, HEK-hNPRA membranes) was 7.40. Moreover, at hNPR-A, the pEC50 (usually the negative decadic logarithm of the EC50, by convention in mol/L) is 7.96. The remaining at 2 h in data set [2] is 95%.

Take `CCCCCCC(=O)NC[C@@H]1NC(=O)CC[C@@H](C(=O)N[C@@H](Cc2ccc(O)cc2)C(=O)N2C[C@H](C(N)=O)NC(=O)[C@@H]2CCCNC(=N)N)NC(=O)[C@H](CO)NC(=O)[C@H]([C@@H](C)CC)NC(=O)[C@H](CCCNC(=N)N)NC(=O)[C@H](CC(=O)O)NC(=O)[C@@H](CCCC)NC(=O)[C@H](CCCNC(=N)N)NC(=O)CNC(=O)[C@@H](C)NC(=O)[C@H](Cc2ccccc2)NC(=O)[C@H](Cc2c[nH]cn2)NC1=O` [3-76] ([Dap](Heptanoyl)HF[dA]GR[dNle]DRISEY-X1; lactam N-12): the “Percent Inhibition” value in data set [1] was found to be 93%. In addition, the pEC50 at hNPR-A was 8.00. In the data set on neutral endopeptidase, the remaining at 2 h is 84%.

For `CCCC[C@@H]1NC(=O)[C@H](CCCNC(=N)N)NC(=O)CNC(=O)CNC(=O)[C@H](Cc2ccccc2)NC(=O)[C@H](Cc2c[nH]cn2)NC(=O)[C@@H](N)CC(=O)NCC[C@@H](C(=O)N[C@@H](Cc2ccc(O)cc2)C(=O)N2C[C@H](C(N)=O)NC(=O)[C@@H]2CCCNC(=N)N)NC(=O)[C@H](CO)NC(=O)[C@H]([C@@H](C)CC)NC(=O)[C@H](CCCNC(=N)N)NC(=O)[C@H](CC(=O)O)NC1=O` [4-143] (H-DHFGGR[Nle]DRIS[Dab]Y-X1; lactam 1-12), the “Percent Inhibition” value in data set [1] was determined as 69%. Also, the pEC50 on hNPR-A was 9.70.

As for `CCCCCCC(=O)N[C@H]1CC(=O)NCC[C@@H](C(=O)N[C@@H](Cc2ccc(O)cc2)C(=O)N2C[C@H](C(N)=O)NC(=O)[C@@H]2CCCNC(=N)N)NC(=O)[C@H](CO)NC(=O)[C@H]([C@@H](C)CC)NC(=O)[C@H](CCCNC(=N)N)NC(=O)[C@H](CC(=O)O)NC(=O)[C@H](CCCC)NC(=O)[C@H](CCCNC(=N)N)NC(=O)CNC(=O)CNC(=O)[C@H](Cc2ccccc2)NC(=O)[C@H](Cc2c[nH]cn2)NC1=O` [4-137] (Heptanoyl-DHFGGR[Nle]DRIS[Dab]Y-X1; lactam 1-12), the “Percent Inhibition” value in data set [1] was determined as 78%. Besides, the pEC50 at hNPR-A is 9.60.

Take `CCCCCCC(=O)NCC[C@@H]1NC(=O)CC[C@@H](C(=O)N[C@@H](Cc2ccc(O)cc2)C(=O)N2C[C@H](C(N)=O)NC(=O)[C@@H]2CCCNC(=N)N)NC(=O)[C@H](CO)NC(=O)[C@H]([C@@H](C)CC)NC(=O)[C@H](CCCNC(=N)N)NC(=O)[C@H](CC(=O)O)NC(=O)[C@@H](CCCC)NC(=O)[C@H](CCCNC(=N)N)NC(=O)CNC(=O)[C@@H](C)NC(=O)[C@H](Cc2ccccc2)NC(=O)[C@H](Cc2c[nH]cn2)NC1=O` [3-75] ([Dab](Heptanoyl)HF[dA]GR[dNle]DRISEY-X1; lactam N-12): in data set [1], the “Percent Inhibition” value came to 98%. The pEC50 at hNPR-A is 8.30. In addition, the remaining at 2 h in data set [2] turned out to be 97%.

Turning to `CCCCCCC(=O)N[C@H]1CC(=O)NCC[C@@H](C(=O)N[C@@H](Cc2ccc(O)cc2)C(=O)N2C[C@H](C(N)=O)NC(=O)[C@@H]2CCCNC(=N)N)NC(=O)[C@H](CO)NC(=O)[C@H]([C@@H](C)CC)NC(=O)[C@H](CCCNC(=N)N)NC(=O)[C@H](CC(=O)O)NC(=O)[C@@H](CCCC)NC(=O)[C@H](CCCNC(=N)N)NC(=O)CNC(=O)[C@@H](C)NC(=O)[C@H](Cc2ccccc2)NC(=O)[C@H](Cc2c[nH]cn2)NC1=O` [4-138] (Heptanoyl-DHF[dA]GR[dNle]DRIS[Dab]Y-X1; lactam 1-12), the “Percent Inhibition” value in data set [1] was found to be 100%. Moreover, the pEC50 on hNPR-A was 8.40. In data set [2], the remaining at 2 h worked out at 89%.

For `CCCCCCC(=O)N[C@H]1CNC(=O)CCC(=O)NC[C@@H](C(=O)N[C@@H](Cc2ccc(O)cc2)C(=O)N2C[C@H](C(N)=O)NC(=O)[C@@H]2CCCNC(=N)N)NC(=O)[C@H](CO)NC(=O)[C@H]([C@@H](C)CC)NC(=O)[C@H](CCCNC(=N)N)NC(=O)[C@H](CC(=O)O)NC(=O)[C@H](CCCC)NC(=O)[C@H](CCCNC(=N)N)NC(=O)CNC(=O)[C@@H](C)NC(=O)[C@H](Cc2ccccc2)NC(=O)[C@@H](Cc2c[nH]cn2)NC1=O` [1-37] (Heptanoyl-[Dap][dH]F[dA]GR[Nle]DRIS[Dap]Y-X1; linker 1-12 via Suc), the “Percent Inhibition” value in data set [1] was 100%. For the same molecule, the pEC50 on hNPR-A was 9.15.

Take `CCCCCCC(=O)N[C@H]1CNC(=O)CCCC(=O)NCCC[C@@H](C(=O)N[C@@H](Cc2ccc(O)cc2)C(=O)N2C[C@H](C(N)=O)NC(=O)[C@@H]2CCCNC(=N)N)NC(=O)[C@H](CO)NC(=O)[C@H]([C@@H](C)CC)NC(=O)[C@H](CCCNC(=N)N)NC(=O)[C@H](CC(=O)O)NC(=O)[C@H](CCCC)NC(=O)[C@H](CCCNC(=N)N)NC(=O)CNC(=O)[C@@H](C)NC(=O)[C@H](Cc2ccccc2)NC(=O)[C@@H](Cc2c[nH]cn2)NC1=O` [1-31] (Heptanoyl-[Dap][dH]F[dA]GR[Nle]DRIS[Orn]Y-X1; linker 1-12 via Glutaryl): in data set [1], the “Percent Inhibition” value is on record as 68%. The pEC50 at hNPR-A is 8.00.
